Data on 6 compounds can be found in article PMC12563652 (International Journal of Molecular Sciences, 2025).

Data set [1] has as its target T1, human TAAR1 (Homo sapiens, UniProt Q96RJ0).
T1 sequence (Q96RJ0 1-339): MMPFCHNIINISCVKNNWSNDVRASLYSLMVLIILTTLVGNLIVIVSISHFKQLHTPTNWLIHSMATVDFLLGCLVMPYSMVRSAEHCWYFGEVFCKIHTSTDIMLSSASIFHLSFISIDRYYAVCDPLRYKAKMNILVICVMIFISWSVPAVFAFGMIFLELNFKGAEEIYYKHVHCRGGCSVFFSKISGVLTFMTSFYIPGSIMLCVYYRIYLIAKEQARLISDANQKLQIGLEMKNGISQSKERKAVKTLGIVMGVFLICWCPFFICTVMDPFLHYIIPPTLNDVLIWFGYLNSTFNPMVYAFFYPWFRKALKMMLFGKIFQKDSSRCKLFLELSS
To be noted: at 10^−4 M; cited from earlier work.

Another data set deals with T2, α2A-adrenoceptor (Homo sapiens, UniProt P08913).
T2 sequence (P08913 1-465): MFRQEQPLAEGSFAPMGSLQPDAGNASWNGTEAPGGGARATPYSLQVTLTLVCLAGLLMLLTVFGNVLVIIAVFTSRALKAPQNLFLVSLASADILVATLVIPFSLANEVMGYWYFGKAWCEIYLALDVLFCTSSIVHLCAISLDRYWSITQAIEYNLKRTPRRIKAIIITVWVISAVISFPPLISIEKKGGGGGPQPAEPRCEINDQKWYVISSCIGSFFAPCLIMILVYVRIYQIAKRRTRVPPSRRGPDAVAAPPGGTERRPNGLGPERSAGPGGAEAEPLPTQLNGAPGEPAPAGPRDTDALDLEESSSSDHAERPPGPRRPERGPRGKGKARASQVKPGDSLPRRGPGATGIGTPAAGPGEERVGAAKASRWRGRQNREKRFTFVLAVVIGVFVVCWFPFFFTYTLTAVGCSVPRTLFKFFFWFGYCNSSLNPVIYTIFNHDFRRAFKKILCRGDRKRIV
To be noted: cited from earlier work.

For data set [2], the target named is T3, α2B-adrenoceptor (Homo sapiens, UniProt P18089).
T3 sequence (P18089 1-450): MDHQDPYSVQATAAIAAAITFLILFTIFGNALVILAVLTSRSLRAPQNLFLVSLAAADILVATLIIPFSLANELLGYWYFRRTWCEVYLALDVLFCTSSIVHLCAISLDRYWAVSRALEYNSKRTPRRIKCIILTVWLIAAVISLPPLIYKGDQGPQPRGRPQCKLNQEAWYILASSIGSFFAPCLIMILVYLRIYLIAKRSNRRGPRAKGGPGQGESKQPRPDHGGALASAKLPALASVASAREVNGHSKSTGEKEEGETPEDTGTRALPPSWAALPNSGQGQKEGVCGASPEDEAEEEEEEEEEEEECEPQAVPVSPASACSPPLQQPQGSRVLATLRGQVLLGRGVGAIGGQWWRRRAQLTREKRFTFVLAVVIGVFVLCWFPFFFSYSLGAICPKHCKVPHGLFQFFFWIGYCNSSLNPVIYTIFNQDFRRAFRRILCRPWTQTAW
The settings on record: read-out: α2B Ant IC50; cited from earlier work.

For data set [3] the following is noted: rat, intraperitoneal administration; cited from earlier work.
A further data set has as its target α2-adrenoceptor. Briefly: Competitive radioligand binding, [3H]clonidine, rat cerebral cortex. The settings on record: n.a. = no activity at 10–5 M.
In data set [4] the target is T3, α2B-adrenoceptor. Briefly: α2B-adrenoceptor intrinsic activity, antagonist mode (AequoScreen). It is filed as cell-based. The settings on record: n.a. = no activity at 10–5 M; read-out: α2B Ant IC50.
For data set [5], the target named is T4, 5-HT2C serotoninergic receptor (Homo sapiens, UniProt P28335).
T4 sequence (P28335 33-458): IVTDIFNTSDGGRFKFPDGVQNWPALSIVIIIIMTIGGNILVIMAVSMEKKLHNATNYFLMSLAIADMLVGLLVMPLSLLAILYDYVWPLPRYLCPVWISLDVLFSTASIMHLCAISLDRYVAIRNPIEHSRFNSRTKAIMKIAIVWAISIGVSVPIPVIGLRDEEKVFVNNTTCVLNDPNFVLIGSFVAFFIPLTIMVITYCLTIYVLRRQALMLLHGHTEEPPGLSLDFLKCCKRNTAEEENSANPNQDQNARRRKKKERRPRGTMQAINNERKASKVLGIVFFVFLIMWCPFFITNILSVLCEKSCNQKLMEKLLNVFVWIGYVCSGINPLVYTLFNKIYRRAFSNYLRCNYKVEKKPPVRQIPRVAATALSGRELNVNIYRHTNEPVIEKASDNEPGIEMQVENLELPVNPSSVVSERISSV
The data set is described as follows: 5-HT2C intrinsic activity, antagonist mode (AequoScreen calcium mobilization). It is filed as cell-based.

The target of the next data set is α1-adrenoceptor. Briefly: Competitive radioligand binding, [3H]prazosin, rat cerebral cortex. To be noted: n.a. = no activity at 10–5 M. Here is the method:
The competitive radioligand-binding assay assessed affinity for α1- and α2-adrenoceptors. Experiments were carried out in the rat cerebral cortex. […] The membrane preparation and assay technique followed the previously reported protocol. Radioactivity was measured using the MicroBeta2 scintillation counter (PerkinElmer, Kraków, Poland). The data was adjusted to match a single-site curve-fitting formula using Prism 8 (GraphPad Software, La Jolla, CA, USA), and the Ki values were estimated by means of the Cheng–Prusoff formula.

For data set [6], the target named is T1, human TAAR1. Briefly: TAAR1 agonist activity, Hit Hunter cAMP assay. Type of data set: cell-based.
The test system of data set [7] is platelet aggregation in rat whole blood. Briefly: In vitro collagen-induced platelet aggregation in rat whole blood (impedance aggregometry). The settings on record: collagen 1.6 µg/mL. It is filed as cell-based. Here is the method:
In vitro platelet aggregation assays were conducted using freshly collected whole blood from rats, utilizing the Multiplate platelet function analyzer (Roche Diagnostics, Mannheim, Germany)—a five-channel device that measures electrical impedance, following methods described previously. Upon stimulation, platelets adhere to and aggregate on dual metal sensors within the test cuvette, causing an increase in electrical resistance, which corresponds to the number of platelets attached to the electrodes.
Blood was collected from the carotid artery of the rat into tubes coated with hirudin (S-Monovette, Sarstedt, Germany). A volume of 300 μL of the anticoagulated blood was mixed with 300 μL of prewarmed isotonic saline that contained the test compound or a vehicle control (0.1% DMSO) and incubated at 37 °C for 3 min under continuous stirring. Aggregation was triggered by adding collagen (final concentration: 1.6 µg/mL). Platelet activity was monitored for 6 min. Multiplate V2.04 software calculated the area under the curve (AUC) for each measurement to determine average platelet response.

For a further data set, the system named is TAAR1. The settings on record: cited from earlier work.
The test system of data set [8] is Danio rerio larvae. Briefly: Nile red fluorescence fat metabolism assay in zebrafish larvae. Type of data set: in vivo. The settings on record: 20 µg/mL, 48 h incubation of larvae. The protocol: The study was conducted based on the method described earlier by Jones et al.. Starting at 3 days after fertilization (dpf), larvae were placed into 6-well plates and incubated with the test solutions (compounds in E3: JP-14 at a concentration of 10 μg/mL or resveratrol or E3 alone) for 48 h. Resveratrol solution (20 μg/mL) was used as the reference compound. After 24 h, the solutions were replaced with new ones containing Nile red dye (9-diethylamino-5H-benzo[α]phenoxazine-5-one, Pol-aura, Poland) at a concentration of 100 ng/mL. Nile red is a selective fluorescent lipid dye used to stain lipid droplets. Incubation with the dye was therefore 24 h. Stock solution of Nile red was prepared earlier by dissolving it in acetone to a concentration of 500 μg/mL. After the incubation period, the larvae were rinsed 3 times with 0.1 M phosphate-buffered, pH 7.4 (PBS, Sigma-Aldrich, Schnelldorf, Germany) and anesthetized with cold […] tricaine solution (Sigma-Aldrich, Schnelldorf, Germany). Next, they were visualized under a fluorescence microscope (Zeiss.Discovery.V8, Zeiss, Oberkochen, Germany) and analyzed with ImageJ FIJI program (version 2.17.0).

In data set [9] the test system is Danio rerio larvae. The data set is described as follows: Fructose-induced lipid disturbance in zebrafish larvae (Oil Red O). The settings on record: 20 µg/mL with 4% fructose, 24 h. It is filed as in vivo. Here is the method: Zebrafish larvae 4 dpf were incubated for another 24 h with 4% fructose (final solution) in embryo medium to induce metabolic disorders. Tested solutions (compounds in E3: JP-14 at concentration of 20 μg/mL or resveratrol of 40 μg/mL) were added to fructose solution (8% in E3). The final concentration of JP-14 was 10 μg/mL or resveratrol of 20 μg/mL. The control group was incubated with E3 only. Incubation was carried out in a 6-well plate (10 larvae/well) to which 3 mL of liquid was added per well. Larvae were then collected, euthanized with tricaine, and transferred to 4% formaldehyde solution. After 24 h, larvae were washed 3 times with PBS (Sigma-Aldrich, Germany) and stained for neutral lipids, similar to previous studies. Larvae incubated for 1 h in a solution of 0.25% oil red O (ORO, Merck, Darmstadt, Germany) in 60% isopropanol (Merck, Germany). The samples were then rinsed three times with 60% isopropanol and washed 6 times with PBS, then imaged on a microscope (OPTA-TECH MN16, Warszawa, Poland) and analyzed with the ImageJ FIJI program. […] Next, the samples were centrifuged (10 min, 3000 rpm, MPW-260R, MPW Med Instruments, Warszawa, Poland), and the amount of dye in supernatant was determined spectrophotometrically (MuLTISKAN.GO, Thermo Fisher Scientific Inc. Waltham, MA, USA) at a wavelength of 495 nm.

Values joined by “and” are separate entries in the source; they are usually repeats but may differ in a detail not shown here. Equal entries are not always repeated. Where two headings read alike, the source gives them in different places. Marks after values point to notes of the source that are not given here.

The EC50 is the concentration giving half of the maximal effect. For orientation: IC50 means the concentration that gives 50% inhibition. Take 4-OH-guanabenz: the “TAAR1 Ago Emax (max Ago)” value at human TAAR1 [1] is reported as 34%/ (10^−4M) ^a. For the same compound, the α2A-adrenoceptor activation at α2A-adrenoceptor (partial agonist) is 30%. Further, on α2A-adrenoceptor (read-out: α2A Ago EC50), the EC50 is 0.316 µM. Further, on α2B-adrenoceptor [2], the IC50 is 0.33 µM. In addition, in data set [3], the “highest (peak) level in brain” value is listed as 64.5 ng/g and the tmax in brain is listed as 15 min.
What is called Ki is a dissociation constant, usually derived from enzyme kinetics or from competition with a known ligand. A low value points to tighter binding. As for `COc1ccc(F)c(/C=N/NC(=N)N)c1F` [8 (JP10)], the inhibitory constant (Ki) at α2-adrenoceptor came out at 0.232 ± 0.0085 µM. The 50% inhibitory concentration (IC50) at α2B-adrenoceptor [4] turned out to be 0.22 µM.
For `CC[C@@H](CO)NC(=O)[C@@H]1C=C2c3cccc4c3c(cn4C)C[C@H]2N(C)C1` [MSE, methysergide], the EC50 in data set [5] is 0.0011 ± 0.0001 µM.
Take `Cc1ccc(N(CC2=NCCN2)c2cccc(O)c2)cc1` [PHT, phentolamine]: affinity on α1-adrenoceptor was put at a Ki of 0.0109 ± 0.0008 µM.
In general, Emax refers to the greatest response seen or fitted, relative to the assay's reference. For the compound `N=C(N)N/N=C/c1c(Cl)cccc1Cl` [guanabenz], the “TAAR1 Ago Emax” value on human TAAR1 [6] (% of maximal response induced by the full agonist tyramine, listed as GNB) was 60%. The concentration for a half-maximal effect (EC50) was 0.3 µM and 0.301 µM on human TAAR1 [6] (cAMP accumulation, n.a. = no activity at 10–5 M, read-out: TAAR1 Ago EC50); 0.0085 µM in the data set with TAAR1. Besides, at human TAAR1 [6] (read-out: TAAR1 Ago Emax, % of maximal response induced by the full agonist tyramine), the Emax amounted to 50%. The “increase of collagen-induced platelet aggregation” value in data set [7] (10 µM) turned out to be 31.81%; in [7] (100 µM), 22.73%. In addition, the “highest (peak) level in brain” value in data set [3] was 183.2 ng/g. Further, the tmax in brain in data set [3] was 60 min.
On to `Oc1ccc(/C=C/c2cc(O)cc(O)c2)cc1` [resveratrol], for which the “Nile red detectable fat” value in the data set with Danio rerio larvae [8] was “slightly stronger effect”. Besides, the fructose-induced yolk enlargement result in the data set on Danio rerio larvae [9] was “Comparable effects”.
